Values of other authors as cited in patent publication US7718667B2, “Fused aminopiperidines as dipeptidyl peptidase-IV inhibitors for the treatment or prevention of diabetes” (Merck Sharp & Dohme Corp., priority 2004, dated 2010).

Legend:
[1] = system: rats; settings: survival doubled from day 7
[2] = system: mouse; settings: cyclophosphamide-induced neutropenia
[3] = target: T1, DPP-IV (Homo sapiens, UniProt P27487)
T1 construct: GRF is rapidly degraded in plasma to GRF[3-44]; from tissue
T1 sequence (P27487 39-766 limits assumed, species assumed): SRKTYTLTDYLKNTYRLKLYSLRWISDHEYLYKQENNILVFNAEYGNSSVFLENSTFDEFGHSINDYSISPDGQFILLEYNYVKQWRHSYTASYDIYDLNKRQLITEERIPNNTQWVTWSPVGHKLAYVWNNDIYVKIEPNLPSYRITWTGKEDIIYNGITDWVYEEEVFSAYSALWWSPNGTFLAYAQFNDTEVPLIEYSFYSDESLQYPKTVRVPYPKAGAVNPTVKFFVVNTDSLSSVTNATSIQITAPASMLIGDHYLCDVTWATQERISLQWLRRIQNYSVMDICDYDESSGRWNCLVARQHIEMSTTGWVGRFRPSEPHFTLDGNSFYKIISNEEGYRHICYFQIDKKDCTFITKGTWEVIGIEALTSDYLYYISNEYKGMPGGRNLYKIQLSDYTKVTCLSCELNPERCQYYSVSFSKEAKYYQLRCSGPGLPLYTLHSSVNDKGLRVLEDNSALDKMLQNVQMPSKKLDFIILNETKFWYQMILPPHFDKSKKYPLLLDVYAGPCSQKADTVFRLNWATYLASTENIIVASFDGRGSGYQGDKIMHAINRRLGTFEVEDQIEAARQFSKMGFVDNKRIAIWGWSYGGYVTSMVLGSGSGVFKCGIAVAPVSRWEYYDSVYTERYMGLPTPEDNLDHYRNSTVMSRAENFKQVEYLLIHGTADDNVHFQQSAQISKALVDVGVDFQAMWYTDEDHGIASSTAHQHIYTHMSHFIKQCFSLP

In the case of `CC(C)N1CCC(c2ccccc2)(c2ccccc2)CC1` [Prodipine, Pro-Pro-diphenyl-phosphonate], the cardiac allograft survival [1] is given as 14 day.

In the case of `CC(C)[C@H](N)C(=O)N1CCC[C@H]1B(O)O` [Val-Boro-Pro], the hematopoiesis [2] is listed as “stimulated hematopoiesis”.

In the case of `CC[C@H](C)[C@H](N)C(=O)N1CCC[C@H]1C(=O)N[C@H](C(=O)O)[C@@H](C)CC` [diprotin A], the “degradation of GRF in plasma to GRF[3-44]” value [3] is listed as “prevented”.
